Series [1] is described as follows: Displacement of [3H]Gabapentin from alpha2delta calcium channel in pig brain tissue homogenates after 45 mins by scintillation counting. The class given is tissue-based, Sus scrofa. A general note: Displacement assays read how much labelled ligand stays bound in the presence of the test substance.
The nature of series [2]: Tmax in iv dosed rat. The class given is ADME, organism-based. The following applies: in vivo.
Another series deals with Rattus norvegicus. The series can be described thus: Unbound clearance in iv dosed rat. The series is classed as ADME, organism-based. The following applies: in vivo.
Series [3] is described as follows: Half life in iv dosed rat. The series is classed as ADME, organism-based. Conditions: in vivo.
Series [4] can be described thus: Volume of distribution in iv dosed rat. The series is classed as ADME, organism-based. The following applies: in vivo.

These results are taken from ChEMBL document CHEMBL1777680, “Part 1: N-alkylated glycines as potent α2δ ligands” (Bioorg Med Chem Lett, 2011).

pIC50: −log10 of the molar value.

Take `O=C(O)CNCCSc1ccc(Cl)cc1`: in series [1], the pIC50 was 6.71.
Same read-out and setting: for `O=C(O)CNCCOc1ccc(Cl)cc1` the value was 5.18.
For `O=C(O)CNCCSc1ccc(F)cc1`, the pIC50 in series [1] was 5.60.
`O=C(O)CNCCSc1ccc(Br)cc1`: the negative-log IC50 (pIC50) in series [1] is 7.23.
Turning to `O=C(O)CNCCSc1ccccc1`, the negative logarithm of the IC50 (pIC50) in series [1] was 5.27.
With `O=C(O)CNCCSc1ccc2ccccc2c1`, the time to peak (Tmax) in series [2] turned out to be 15 min. Further, the CL free in the series with Rattus norvegicus was found to be 23 mL/min/kg. Besides, the half-life in series [3] is 66 min. The same compound gave a Vd in series [4] of 0.6 L/kg. In series [1], the negative logarithm of the IC50 (pIC50) was 7.66.
`O=C(O)CNCCSc1cccc(Br)c1`: the negative logarithm of the IC50 (pIC50) in series [1] was 6.37.
On the same count and under the same terms, the value for `O=C(O)CNCCSc1ccc2ccncc2c1` was 7.08; that for `N#Cc1ccc(SCCNCC(=O)O)cc1` was 6.17; that for `NCc1ccc(SCCNCC(=O)O)cc1` was 6.05.
As for `C[C@@H](CNCC(=O)O)Oc1ccc(Br)cc1`, in series [1], the pIC50 is 6.36.
For the compound `C[C@H](CNCC(=O)O)Oc1ccc(Br)cc1`, the negative-log IC50 (pIC50) in series [1] was 5.18.
For `CC(CNCC(=O)O)Oc1ccc(Cl)cc1` (racemic), the pIC50 in series [1] was 6.28.
Take `CCC(CNCC(=O)O)Oc1ccc(Br)cc1` (racemic): the negative logarithm of the IC50 (pIC50) in series [1] is 6.67.
Consider `CCC(CNCC(=O)O)Oc1cccc(Cl)c1` (racemic), for which the pIC50 in series [1] was 7.40.

As a reminder, the pIC50 is the negative decadic logarithm of the IC50, by convention in mol/L. The Tmax is the time from dosing to the highest level. As a reminder, the half-life is the time needed for the level to fall by half in the phase considered. The low end stands for rapid decline, the high end for slow decline. A word on the Vd: it is the apparent volume that relates the amount in the body to the concentration in plasma or blood. High values mean wide distribution into tissue, low ones little distribution into tissue.
